Test results: patent publication US7498336B2, “Deazaflavin compounds and methods of use thereof” (The United States of America as represented by the …, priority 2003, dated 2009)
Square brackets hold non-standard residues; d marks the D form. Peptide text beside a SMILES is read from it. Nle = CCCC[C@H](N)C(=O)O

Legend:
[1] = tested on: Normal human fibroblast MRC-5; assay: Cell based assay for accumulation of MDM2 and p53 (immunoblot); conditions: MRC-5 cells; for MDM2 level / p53 level: 50 μM, 8 hours
Description: Methods: Normal human fibroblast MRC-5 were chosen to determine whether the compounds from the high throughput screening can inhibit the E3 activity of Mdm2, i.e. stabilizing MDM2 and p53 in vivo. After being seeded in 12-well tissue culture cluster overnight, the cells were treated with 50 μM of the compounds for 8 hours. They were harvested with trypsin-EDTA, washed with PBS, and lysed with RIPA buffer. Following removal of insoluble pellet by centrifugation for 20 minutes at 10000 rpm, the lysate was separated on 4-20% gradient SDS-polyacrylamide gel and transferred onto nitrocellulose membrane. The membrane was then blotted with anti-p53 antibody (DO-1), anti-MDM2 antibodies (Ab-1 and Ab-2), anti-p27 (Santa Cruz), anti-Nedd4, and anti-p21Waf1 antibody. After extensive washing with PBS containing 0.5% Triton X-100, it was incubated with HRP-labeled donkey anti-mouse antibody and visualized using enhanced chemiluminescence.

[2] = tested on: E1A-transformed RPE cells; assay: Apoptosis in E1A-transformed RPE cells; format: cell-based, human; conditions: FIG. 4 left
Description: Cell-based assays include model systems where primary human epithelial cells (“normal cells”) are compared to the same cells expressing the adenovirus E1A oncogene (“transformed cells”). Activation of p53 was not toxic to normal cells, but activation of p53 in transformed cells induces p53-mediated apoptosis. High concentrations of wild type (wt) p53 protein can induce apoptosis in a variety of different tumor cells. Potential inhibitors of MDM2 would regulate the stability and function of p53 and MDM2. Preferably the assays measure number of cells undergoing apoptosis due to MDM2 induced p53 degradation in tumor cells in the presence or absence of candidate compounds as compared to normal cells in the presence or absence of candidate compounds. An increase in the number of these cells undergoing apoptosis in the presence of candidate compounds in tumor cells, as compared to normal untreated cells is indicative of a potential anti-tumor compound. […]
Apoptosis and cell death were determined by FACS analysis of sub-G1 nuclei or counting trypan blue-positive cells under microscope. Caspase activity was measured using fluorogenic substrate Ac-DEVD-AFC and CytoFluor multi-well plate reader (PerSeptive Biosystems). […]

GST-MDM2 = molecular target: T1, GST-MDM2 (Homo sapiens, UniProt Q00987); assay: Standard MDM2 in vitro ubiquitination assay (E1+E2+E3), SDS-PAGE gel; format: biochemical; conditions: FIG. 2A, 2F
T1 construct: made in house
T1 sequence (Q00987 whole entry): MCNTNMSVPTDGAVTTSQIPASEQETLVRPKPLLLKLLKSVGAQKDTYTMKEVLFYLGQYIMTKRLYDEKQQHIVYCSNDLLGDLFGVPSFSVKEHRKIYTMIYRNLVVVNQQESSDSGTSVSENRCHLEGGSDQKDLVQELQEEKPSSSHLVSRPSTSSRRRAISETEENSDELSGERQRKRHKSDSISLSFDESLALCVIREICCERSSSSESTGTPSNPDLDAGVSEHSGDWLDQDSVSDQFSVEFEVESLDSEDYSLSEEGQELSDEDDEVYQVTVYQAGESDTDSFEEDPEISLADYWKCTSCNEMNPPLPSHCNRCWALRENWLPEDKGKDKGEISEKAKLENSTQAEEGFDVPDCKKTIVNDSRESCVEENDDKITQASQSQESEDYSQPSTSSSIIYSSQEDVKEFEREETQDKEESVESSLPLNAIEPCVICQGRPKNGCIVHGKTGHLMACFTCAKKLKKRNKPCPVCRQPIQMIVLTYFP
Description: a. “Standard MDM2 in vitro Ubiguitination Assay” (E1+E2+E3 Assay)
1 pmole per experimental point of bacterially expressed GST-MDM2 (or GST-Nedd) was coupled to glutathione Sepharose (GS) for 30 minutes at room temperature with tumbling, followed by 3× wash with 50 mM Tris pH 7.5. Following this, 20 μl of 1× buffer was added (40 μl 10× reaction buffer*, 40 μl 10× PCK**, 320 μl dH2O). The test compound in DMSO is then added to the desired concentration with an equal volume of DMSO used as a control. Samples are incubated with shaking for 1 hr at 23° C. […] The reaction is terminated by addition of 8 μl 4× reducing SDS-PAGE loading buffer. After dissociating proteins from the beads at 100° C. for 2 minutes, samples are resolved on 6% PAGE followed by exposure of the dried gel to phosphor screen. Note: ^32P Ub is derived from GST-Ub that has been engineered to include a PKA phosphorylation site. This fusion protein is purified on glutathione Sepharose, phosphorylated, following this, the ^32P Ub ubiquitin is cleaved and purified away from the thrombin.
• 500 mM Tris (pH 7.5) • 2 mM ATP • 5 mM MgCl2 • 1 mM DTT • 10 mM creatine phosphate (Sigma P4635) (45 mg/10 ml). **10× PCK • Sigma C7886, 1000 U, reconstitute in 200 μl 10 mM Tris pH 8.0.

[3] = molecular target: T2, p53 pre-bound to GST-MDM2 (Homo sapiens, UniProt Q00987); assay: In vitro p53 ubiquitination assay; format: biochemical; conditions: cellular p53 pre-bound to GST-MDM2, FIG. 2G
T2 construct: made in house; host or cells: GST-MDM2: bacteria; p53: SaOS-p53 inducible cells
T2 sequence (Q00987 whole entry): as above
T2 sequence (P04637 whole entry partner): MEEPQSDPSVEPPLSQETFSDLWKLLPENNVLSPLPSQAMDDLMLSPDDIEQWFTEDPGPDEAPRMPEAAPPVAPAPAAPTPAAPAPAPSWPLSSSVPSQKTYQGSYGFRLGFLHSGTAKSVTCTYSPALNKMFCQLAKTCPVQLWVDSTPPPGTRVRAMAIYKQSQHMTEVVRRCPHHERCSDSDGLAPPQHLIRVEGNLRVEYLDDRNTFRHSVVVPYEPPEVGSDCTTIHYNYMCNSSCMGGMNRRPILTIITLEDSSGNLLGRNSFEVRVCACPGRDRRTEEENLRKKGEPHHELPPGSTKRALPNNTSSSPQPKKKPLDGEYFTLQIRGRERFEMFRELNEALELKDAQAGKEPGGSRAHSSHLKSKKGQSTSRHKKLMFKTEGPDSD
Description: d. In Vitro R53 Ubiguitination Assay
p53 protein from SaOS-p53 inducible cell lysate was purified from cells using GST-MDM2 (5 pmol) pre-bound to GS beads. Samples were then incubated with test compounds as above. Subsequently 2 μl rabbit E1, 1 μl UbcH5b, and 10 μg of ubiquitin were added. After reaction for 15 min at 23° C., samples were subject to SDS-PAGE under reducing conditions, transferred to nitrocellulose membranes and immunoblotted with anti-p53 (DO-1) followed by ECL using standard techniques.

Nedd4 = molecular target: T3, Nedd4 (Homo sapiens, UniProt P46934); assay: In vitro ubiquitination assay (E1+E2+E3) with unrelated E3 ligase; format: biochemical; conditions: gel assay, FIG. 2B, 2C
T3 construct: made in house
T3 sequence (P46934 1-1319): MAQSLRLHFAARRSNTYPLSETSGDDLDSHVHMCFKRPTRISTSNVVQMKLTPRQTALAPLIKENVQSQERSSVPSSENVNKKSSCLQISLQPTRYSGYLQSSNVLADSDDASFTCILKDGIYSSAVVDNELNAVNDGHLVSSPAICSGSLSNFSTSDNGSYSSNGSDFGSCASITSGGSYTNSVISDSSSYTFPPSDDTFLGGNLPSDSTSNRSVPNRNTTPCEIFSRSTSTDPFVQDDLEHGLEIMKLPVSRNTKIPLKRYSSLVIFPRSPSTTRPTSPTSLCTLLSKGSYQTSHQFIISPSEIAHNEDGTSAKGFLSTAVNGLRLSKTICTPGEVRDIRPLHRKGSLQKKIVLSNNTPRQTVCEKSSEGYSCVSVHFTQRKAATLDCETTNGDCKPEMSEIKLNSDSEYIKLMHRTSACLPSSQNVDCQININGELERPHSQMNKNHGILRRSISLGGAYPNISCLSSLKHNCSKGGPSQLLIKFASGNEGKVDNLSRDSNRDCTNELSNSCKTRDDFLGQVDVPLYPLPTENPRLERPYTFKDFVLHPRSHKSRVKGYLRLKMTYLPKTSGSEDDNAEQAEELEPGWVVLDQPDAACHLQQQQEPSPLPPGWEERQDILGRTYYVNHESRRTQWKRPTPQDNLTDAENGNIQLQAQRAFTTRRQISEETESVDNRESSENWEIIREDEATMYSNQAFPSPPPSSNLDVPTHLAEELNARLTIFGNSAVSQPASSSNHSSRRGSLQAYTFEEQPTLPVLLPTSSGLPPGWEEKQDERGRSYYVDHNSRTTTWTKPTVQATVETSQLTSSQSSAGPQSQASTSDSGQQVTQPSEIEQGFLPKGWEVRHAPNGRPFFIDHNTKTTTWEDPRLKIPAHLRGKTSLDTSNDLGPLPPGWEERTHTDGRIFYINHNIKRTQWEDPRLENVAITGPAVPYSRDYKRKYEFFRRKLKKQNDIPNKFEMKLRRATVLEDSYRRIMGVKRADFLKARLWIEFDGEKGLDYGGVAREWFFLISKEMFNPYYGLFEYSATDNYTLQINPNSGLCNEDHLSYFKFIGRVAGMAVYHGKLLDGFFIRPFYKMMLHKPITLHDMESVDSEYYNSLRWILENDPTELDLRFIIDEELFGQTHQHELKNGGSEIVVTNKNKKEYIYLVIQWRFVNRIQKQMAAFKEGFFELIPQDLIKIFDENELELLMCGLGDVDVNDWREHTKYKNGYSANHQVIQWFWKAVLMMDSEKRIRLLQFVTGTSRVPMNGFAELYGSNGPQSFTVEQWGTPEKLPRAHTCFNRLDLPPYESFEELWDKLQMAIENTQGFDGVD
Description: 1 pmole per experimental point of bacterially expressed GST-MDM2 (or GST-Nedd) was coupled to glutathione Sepharose (GS) for 30 minutes at room temperature with tumbling, followed by 3× wash with 50 mM Tris pH 7.5. Following this, 20 μl of 1× buffer was added (40 μl 10× reaction buffer*, 40 μl 10× PCK**, 320 μl dH2O). The test compound in DMSO is then added to the desired concentration with an equal volume of DMSO used as a control. Samples are incubated with shaking for 1 hr at 23° C. To carry out the reaction, a pre-made cocktail of Rabbit E1 (Calbiochem #6620700)/UbcH5B/^32P Ub cocktail (1 μl/0.5 μl/1 μl) is added followed by 15 minutes shaking at 30° C. The reaction is terminated by addition of 8 μl 4× reducing SDS-PAGE loading buffer. After dissociating proteins from the beads at 100° C. for 2 minutes, samples are resolved on 6% PAGE followed by exposure of the dried gel to phosphor screen. Note: ^32P Ub is derived from GST-Ub that has been engineered to include a PKA phosphorylation site. This fusion protein is purified on glutathione Sepharose, phosphorylated, following this, the ^32P Ub ubiquitin is cleaved and purified away from the thrombin.

rabbit E1 = molecular target: T4, rabbit E1 (Oryctolagus cuniculus, UniProt Q29504); assay: E1 only assay (thiol-ester linkage of ubiquitin with E1); format: biochemical; conditions: FIG. 2D
T4 construct: purchased Calbiochem 6620700
T4 sequence (Q29504 1-1058): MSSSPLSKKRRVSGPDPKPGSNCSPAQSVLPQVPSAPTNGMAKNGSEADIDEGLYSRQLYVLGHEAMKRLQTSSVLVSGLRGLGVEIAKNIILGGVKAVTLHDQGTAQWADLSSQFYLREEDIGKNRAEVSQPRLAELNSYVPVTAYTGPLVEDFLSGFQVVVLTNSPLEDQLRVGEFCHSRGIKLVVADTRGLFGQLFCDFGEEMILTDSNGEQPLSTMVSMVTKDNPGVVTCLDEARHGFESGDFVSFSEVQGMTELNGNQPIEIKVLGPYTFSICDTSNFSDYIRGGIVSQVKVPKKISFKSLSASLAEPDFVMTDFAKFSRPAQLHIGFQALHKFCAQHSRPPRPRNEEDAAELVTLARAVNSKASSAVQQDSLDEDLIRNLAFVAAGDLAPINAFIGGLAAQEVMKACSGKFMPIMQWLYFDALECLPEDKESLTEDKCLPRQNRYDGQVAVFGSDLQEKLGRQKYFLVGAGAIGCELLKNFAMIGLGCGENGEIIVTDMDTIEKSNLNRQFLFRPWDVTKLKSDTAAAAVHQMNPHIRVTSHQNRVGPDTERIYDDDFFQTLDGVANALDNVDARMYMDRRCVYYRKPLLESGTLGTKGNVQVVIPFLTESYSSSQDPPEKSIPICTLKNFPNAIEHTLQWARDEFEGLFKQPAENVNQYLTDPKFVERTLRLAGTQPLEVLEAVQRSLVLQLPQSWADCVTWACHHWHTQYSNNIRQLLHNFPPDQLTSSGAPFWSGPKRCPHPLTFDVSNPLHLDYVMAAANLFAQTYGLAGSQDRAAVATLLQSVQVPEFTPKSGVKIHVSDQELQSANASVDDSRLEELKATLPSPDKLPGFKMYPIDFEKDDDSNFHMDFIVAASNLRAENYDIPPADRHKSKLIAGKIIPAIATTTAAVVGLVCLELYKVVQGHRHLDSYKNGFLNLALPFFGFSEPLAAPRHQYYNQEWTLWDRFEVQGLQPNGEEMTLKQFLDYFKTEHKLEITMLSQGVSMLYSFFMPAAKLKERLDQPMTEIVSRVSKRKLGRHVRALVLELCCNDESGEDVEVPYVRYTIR
Description: 2 μl rabbit E1 +12 μl of 1× reaction buffer are mixed together with the test compound followed by addition of 1 μl of ^32P Ub is added for 10 minutes at room temperature followed by resolution by SDS-PAGE under non-reducing conditions to maintain thiol-ester linkages and exposure as above.

Row | SMILES | MDM2 level [1] | p53 level [1] | p21 level ([1]; FIG. 3C) | apoptosis [2] | inhibition of MDM2 E3 ligase (auto-ubiquitination) (GST-MDM2) | inhibition of p53 ubiquitination by MDM2 [3] | selectivity of inhibition of MDM2 versus unrelated E3 ligase Nedd4 (Nedd4) | inhibition of thiol-ester linkage of ubiquitin with E1 (rabbit E1)
1 | CCCC[C@@H](C=O)NC(=O)[C@H](CC(C)C)NC(=O)[C@H](CC(C)C)NC(C)=O [LLNL, reference compound] (Ac-Leu-Leu-[Nle]-aldehyde) | accumulated MDM2, p53, and p21 | accumulated MDM2, p53, and p21 | accumulated MDM2, p53, and p21 | markedly increased apoptosis |  |  |  | 
2 | Cc1ccc(-n2c3nc(=O)[nH]c(=O)c-3cc3cc([N+](=O)[O-])ccc32)cc1 [Compound 98E07, 10-(-4-methyl-phenyl)-7-nitro-10H-pyrimido[4,5-b]quinoline-2,4-dione] | specifically increase MDM2 and p53 | specifically increase MDM2 and p53 |  |  | inhibition of MDM2 auto-ubiquitination |  |  | 
3 | O=c1nc2n(-c3ccc(Cl)cc3)c3ccc([N+](=O)[O-])cc3cc-2c(=O)[nH]1 [Compound 98D07, 10-(-4-chloro-phenyl)-7-nitro-10H-pyrimido[4,5-b]quinoline-2,4-dione] | specifically increase MDM2 and p53 | specifically increase MDM2 and p53 |  |  | inhibition of MDM2 auto-ubiquitination | significant dose-dependent inhibition of p53 ubiquitination |  | 
4 | O=c1nc2n(-c3ccc(Cl)cc3)c3ccc([N+](=O)[O-])cc3cc-2c(=O)[nH]1 [Compound 97H10, 10-(4-chloro-phenyl)-7-nitro-10H-pyrimido[4,5-b]quinoline-2,4-dione] |  |  |  |  |  |  | inhibits all E3s | block the activity of the E1 enzyme
